The values that follow are results of earlier work, collected in patent US8709996B2, “Pharmaceutical treatment process using chitosan or derivative thereof” (Archimedes Development Limited, priority 2003, dated 2014).

For this data set the following is noted: pig, in vivo.

Consider chitosan hydrochloride, for which the “bioavailability of octreotide compared to a solution of octreotide alone” value is recorded as “substantial increases in bioavailability”. As to trimethyl chitosan chloride, the “bioavailability of octreotide compared to a solution of octreotide alone” value is “substantial increases in bioavailability”.
